For test [1], the target named is T1, Prostaglandin E synthase (Homo sapiens, UniProt O14684).
T1 sequence (O14684 whole entry): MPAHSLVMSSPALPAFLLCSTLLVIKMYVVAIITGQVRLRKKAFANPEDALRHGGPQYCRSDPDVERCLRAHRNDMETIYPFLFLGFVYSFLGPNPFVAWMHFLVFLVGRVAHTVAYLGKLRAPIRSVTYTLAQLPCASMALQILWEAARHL
In words: Inhibition of purified mPGES-1 (1 to 152) (unknown origin) extracted from detergent-solubilized baculovirus-infected insect Sf9 cell membranes using PGH2 as substrate assessed as PGE2 production after 2.5 mins by LC/MS analysis.

For test [2], the target named is T2, Prostaglandin E synthase (Homo sapiens) (UniProt O14684).
T2 sequence (whole entry): T1 sequence (O14684 whole entry)
Put plainly: Binding affinity to mPGES-1 (unknown origin) assessed as increase in protein aggregation temperature at 0.1 mM by differential static light scattering method.

For test [3], the target named is T1, Prostaglandin E synthase. Put plainly: Inhibition of recombinant human mPGES-1 expressed in human 293E cell microsomes using PGH2 as substrate assessed as PGE2 production after 2.5 mins by LC/MS analysis.

For orientation: IC50 means the concentration that inhibits the measured activity by half. For `CC(C)Oc1ccc(-n2c(C(=O)O)cc3cc(-c4ccc(C(C)(C)C)cc4)ccc32)cc1`, the figures for the IC50 in test [1] and in test [3] were 2580 nM and 216 nM, respectively. The deltaT in test [2] came to 7.3 °C.

With `Fc1cccc(Cl)c1-c1nc(-c2ccc(C#Cc3ccc(C(F)(F)F)cc3)nc2)c(Br)[nH]1`, the figures for the IC50 in test [1] and in test [3] were 3940 nM and 7 nM, respectively. Moreover, the deltaT in test [2] came to 7.8 °C.

Source of the values: ChEMBL document CHEMBL3576807, “Crystal Structures of mPGES-1 Inhibitor Complexes Form a Basis for the Rational Design of Potent Analgesic and Anti-Inflammatory Therapeutics” (J Med Chem, 2015).
